Measured values reported in US9931379B2, “Oxyntomodulin analogs and methods of making and using same” (The Research Foundation for The State University of New York, priority 2015, dated 2018).
Starred links: 1 amine or outer side, 2 acyl side, 3 side chain; linkers in the order of their positions; H or OH if unused. Positions of bridges follow the written chain, without caps; N, C: chain ends. Non-standard residues stand in square brackets, D forms with d. Residues, ends and D or L forms follow the SMILES beside them. CH2(3,3'-bipyridine-6,6')CH2 = c1cc(C[*:1])ncc1-c1ccc(C[*:2])nc1; Biphenyl(4,4'-CH2)2 = c1cc(-c2ccc(C[*:2])cc2)ccc1C[*:1]

What was measured:
[1] = Far-UV circular dichroism measurement; assay type: physicochemical; details: measure of relative amounts of 310- and α-helix
Procedure: The sensitivity and scan rate of the spectrophotometer were set to 100 mdeg and 50 nm/min, respectively. All peptides were dissolved in 0.1×PBS to reach final concentrations of 0.2 mg/mL.

GCGR = target: T1, GCGR (Homo sapiens, UniProt P47871); assay: CRE-driven luciferase reporter assay, HEK293 cells overexpressing GCGR; assay type: cell-based; details: compared to its linear counterpart
T1 construct: expressed in transfected cells
Procedure: (§1) The surviving cells (referred to as CRE-HEK293) were expanded and then transfected with a G418 selective mammalian expression plasmid encoding human GCGR or GLP-1R, followed by geneticin selection (Life technologies, Carlsbad, Calif.). Single-colony stable cell lines expressing both CRE-luciferase and GCGR/GLP-1R were then established for in vitro activity assays.
(§2) HEK293-GCGR-CRE and HEK293-GLP-1R-CRE cells were seeded in a white 384-well plate at a density of 5,000 cells per well and cultured for 24 hours in DMEM with 10% FBS at 37° C. with 5% CO2. Cells were treated with different peptides in a dose dependent manner. After 24 hours, 10 μL of Bright-Glo reagent (Promega, Madison, Wis.) was added to each well and luminescence was determined using an Envision multilabel plate reader (PerkinElmer, Waltham, Mass.). The EC50 of each peptide was calculated using GraphPad Prism 6 software (GraphPad, San Diego, Calif.).

CD1 mice = assay: Oral glucose tolerance test (OGTT); assay type: in vivo; details: 10 μg/mice s.c. 4 hours before oral glucose challenge
Procedure: CD1 mice were fasted overnight and then administered with certain amount of peptides through s.c. injection (10 μg/mice).

[2] = In vitro half-life after incubation with freshly isolated mouse serum (GLP-1R activation assay); assay type: in vitro ADME; details: read-out: t1/2 in vitro (converted)
[3] = In vivo pharmacokinetic studies in mice; plasma peptide measured by GLP-1R reporter assay; details: mouse, 0.3 mg/kg
Procedure: All animal care and experimental procedures were approved by the Institutional Animal Care and Use Committee (IACUC) of California Institute for Biomedical Research and strictly followed the NIH guidelines for humane treatment of animals. Female CD-1 mice obtained from Charles River Limited were used after overnight food deprivation for in vivo PK studies. Peptides were dissolved in pH adjusted phosphate buffered saline (PBS, pH=7.4). 100 μL of each peptide (0.3 mg/kg) was administered to each mouse by either i.v. or s.c routes. Food was provided to mice immediately after bleeding at 30 minutes. […] The resulting supernatant plasma was then stored at −80° C. for peptide concentration determination. Peptide concentration in the plasma was determined by in vitro GLP1R activation reporter assay.
HEK 293 cells overexpressing GLP1R and CRE-Luc reporter were treated with plasma samples at different time points (5 point dose response, starting from 1:20 dilution of each plasma sample), incubated for 16 hours in DMEM with 10% FBS at 37° C. with 5% CO2, and the firefly luciferase activity was measured. At the same time, injected peptides were used to obtain standard curves and parameters for Bottom, Top, EC50, Hill Slope. Random luciferase unit (RLU) for each plasma sample was used to calculate the peptide concentrations in plasma (nmol/L), using parameters derived from the standard curve (RLU=Bottom+(Top−Bottom)/(1+10^((Log EC50−Conc.)*Hill Slope)). Peptide concentrations in plasma were obtained and plotted against time points to obtain in vivo half-life of each peptide, using WinNonLin Phoenix software (Pharsight Corp, St. Louis, Mo.).

GLP-1R = target: T2, GLP-1R (Homo sapiens, UniProt P43220); assay: CRE-driven luciferase reporter assay, HEK293 cells overexpressing GLP-1R; assay type: cell-based
T2 construct: expressed in transfected cells
Procedure: as §1, §2

[4] = iv, intravenously injected, read-out: elimination half-life (converted)
[5] = sc, administered subcutaneously, read-out: half-life (converted)

T2 sequence (P43220 24-463): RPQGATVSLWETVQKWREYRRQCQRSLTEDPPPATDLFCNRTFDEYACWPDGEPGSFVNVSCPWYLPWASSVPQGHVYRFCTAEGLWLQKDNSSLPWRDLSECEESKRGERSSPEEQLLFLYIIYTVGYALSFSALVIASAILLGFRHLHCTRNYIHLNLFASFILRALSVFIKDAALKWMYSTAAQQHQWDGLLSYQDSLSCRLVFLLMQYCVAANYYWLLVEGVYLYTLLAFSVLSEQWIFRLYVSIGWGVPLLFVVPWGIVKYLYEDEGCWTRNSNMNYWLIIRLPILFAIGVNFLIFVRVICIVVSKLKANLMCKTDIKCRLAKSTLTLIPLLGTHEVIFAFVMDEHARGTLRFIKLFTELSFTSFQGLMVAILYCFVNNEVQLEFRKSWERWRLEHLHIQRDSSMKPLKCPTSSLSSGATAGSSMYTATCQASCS
T1 sequence (P47871 26-477): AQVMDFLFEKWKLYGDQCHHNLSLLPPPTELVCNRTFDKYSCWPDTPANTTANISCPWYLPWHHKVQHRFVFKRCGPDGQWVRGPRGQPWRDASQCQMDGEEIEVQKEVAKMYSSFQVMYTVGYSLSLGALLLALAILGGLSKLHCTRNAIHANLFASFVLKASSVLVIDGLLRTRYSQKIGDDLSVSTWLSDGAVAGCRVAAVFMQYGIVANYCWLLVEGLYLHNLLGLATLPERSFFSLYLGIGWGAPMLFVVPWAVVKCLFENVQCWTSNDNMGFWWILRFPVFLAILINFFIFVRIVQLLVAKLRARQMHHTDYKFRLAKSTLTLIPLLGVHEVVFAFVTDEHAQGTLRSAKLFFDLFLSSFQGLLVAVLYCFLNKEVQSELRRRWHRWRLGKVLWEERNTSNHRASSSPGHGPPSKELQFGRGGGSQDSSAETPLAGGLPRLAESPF

Structure (SMILES) | ratio of [θ]222/[θ]208 [1] | increase in activity toward GCGR on crosslinking (GCGR) [fold] | blood glucose levels decreased to (CD1 mice) [%] | half-life [2] [h] | half-life [3, 4] [h] | half-life [3, 5] [h] | increase in activity toward GLP-1R on crosslinking (GLP-1R; compared to its linear counterpart) [fold] | greater efficacy in receptor activation (GLP-1R; compared to peptide 9, GLP-1R and GCGR)
CC[C@H](C)[C@H](NC(=O)[C@H](CC(N)=O)NC(=O)[C@H](CC(N)=O)NC(=O)[C@H](CCCNC(=N)N)NC(=O)[C@H](CC(N)=O)NC(=O)[C@H](CCCNC(=N)N)NC(=O)[C@H](CCCCN)NC(=O)[C@@H](NC(=O)[C@H](CC(N)=O)NC(=O)[C@H](CCSC)NC(=O)[C@H](CC(C)C)NC(=O)[C@H](Cc1c[nH]c2ccccc12)NC(=O)[C@@H]1CSCc2ccc(cc2)-c2ccc(cc2)CSC[C@H](NC(=O)[C@H](CCC(=O)O)NC(=O)[C@H](CC(=O)O)NC(=O)[C@H](CC(C)C)NC(=O)[C@H](Cc2ccc(O)cc2)NC(=O)[C@H](CCCCN)NC(=O)[C@H](CO)NC(=O)[C@H](Cc2ccc(O)cc2)NC(=O)[C@H](CC(=O)O)NC(=O)[C@H](CO)NC(=O)[C@@H](NC(=O)[C@H](Cc2ccccc2)NC(=O)[C@@H](NC(=O)CNC(=O)[C@H](CCC(N)=O)NC(=O)[C@@H](CO)NC(=O)[C@@H](N)Cc2c[nH]cn2)[C@@H](C)O)[C@@H](C)O)C(=O)N[C@@H](C)C(=O)N[C@@H](C)C(=O)N[C@@H](CCCCN)C(=O)N[C@@H](CCC(=O)O)C(=O)N[C@@H](Cc2ccccc2)C(=O)N[C@@H]([C@@H](C)CC)C(=O)N1)[C@@H](C)O)C(=O)N[C@@H](C)C(N)=O [peptide 9] (H-H[dS]QGTFTSDYSKYLDECAAKEFICWLMNTKRNRNNIA-NH2; linker 17-24 via Biphenyl(4,4'-CH2)2) | ~1.0 | 40 | 40 | 13 | 1.2 | 1.9 | 80 | 
CC[C@H](C)[C@H](NC(=O)[C@H](CC(N)=O)NC(=O)[C@H](CC(N)=O)NC(=O)[C@H](CCCNC(=N)N)NC(=O)[C@H](CC(N)=O)NC(=O)[C@H](CCCNC(=N)N)NC(=O)[C@H](CCCCN)NC(=O)[C@@H](NC(=O)[C@H](CC(N)=O)NC(=O)[C@H](CCSC)NC(=O)[C@H](CC(C)C)NC(=O)[C@H](Cc1c[nH]c2ccccc12)NC(=O)[C@@H]1CSCc2ccc(cn2)-c2ccc(nc2)CSC[C@H](NC(=O)[C@H](CCC(=O)O)NC(=O)[C@H](CC(=O)O)NC(=O)[C@H](CC(C)C)NC(=O)[C@H](Cc2ccc(O)cc2)NC(=O)[C@H](CCCCN)NC(=O)[C@H](CO)NC(=O)[C@H](Cc2ccc(O)cc2)NC(=O)[C@H](CC(=O)O)NC(=O)[C@H](CO)NC(=O)[C@@H](NC(=O)[C@H](Cc2ccccc2)NC(=O)[C@@H](NC(=O)CNC(=O)[C@H](CCC(N)=O)NC(=O)[C@@H](CO)NC(=O)[C@@H](N)Cc2c[nH]cn2)[C@@H](C)O)[C@@H](C)O)C(=O)N[C@@H](C)C(=O)N[C@@H](C)C(=O)N[C@@H](CCCCN)C(=O)N[C@@H](CCC(=O)O)C(=O)N[C@@H](Cc2ccccc2)C(=O)N[C@@H]([C@@H](C)CC)C(=O)N1)[C@@H](C)O)C(=O)N[C@@H](C)C(N)=O [peptide 11] (H-H[dS]QGTFTSDYSKYLDECAAKEFICWLMNTKRNRNNIA-NH2; linker 17-24 via CH2(3,3'-bipyridine-6,6')CH2) | ~1.0 |  | 45 | 13 | 1.4 | 1.9 |  | 3-4 fold
